We go through twelve molecules from patent US8729087B2, “Compositions and methods for inhibition of the JAK pathway” (Rigel Pharmaceuticals, Inc., priority 2006, dated 2014).

The test system of assay [1] is Primary human T-cells. As to the kind of experiment: Primary Human T-Cell Proliferation Assay Stimulated with IL-2 (CellTiter-Glo). The format is cell-based. The following applies: read-out: Example 3 (IC50, primary human T-cell proliferation stimulated with IL-2). The text has this:
The activity of the active compounds of the invention may further be characterized by assaying the effect of the 2,4-pyrimidinediamine compounds described herein on the proliferative response of primary human T-cells. In this assay, primary human T-cells derived from peripheral blood and pre-activated through stimulation of the T-cell receptor and CD28, proliferate in culture in response to the cytokine Interleukin-2 (IL-2). This proliferative response is dependent on the activation of JAK1 and JAK3 tyrosine kinases, which phosphorylate and activate the transcription factor Stat-5. The primary human T-cells are incubated with the 2,4-pyrimidinediamine compounds in the presence of IL-2 for 72 hours and at the assay endpoint intracellular ATP concentrations are measured to assess cell viability. A reduction in cell proliferation compared to control conditions is indicative of inhibition of the JAK kinase pathway. An exemplary assay of this type is described in greater detail in Example 3.
Primary human T-cells derived from peripheral blood and pre-activated through stimulation of the T-cell receptor and CD28, proliferate in vitro in response to the cytokine Interleukin-2 (IL-2). This proliferative response is dependent on the activation of JAK-1 and JAK-3 tyrosine kinases, which phosphorylate and activate the transcription factor Stat-5.
Human primary T cells were prepared as follows. Whole blood was obtained from a healthy volunteer, mixed 1:1 with PBS, layered on to Ficoll Hypaque (Amersham Pharmacia Biotech, Piscataway, N.J., Catalog #17-1440-03) in 2:1 blood/PBS:ficoll ratio and centrifuged for 30 min at 4° C. at 1750 rpm. The lymphocytes at the serum: ficoll interface were recovered and washed twice with 5 volumes of PBS. The cells were resuspended in Yssel's medium (Gemini Bio-products, Woodland, Calif., Catalog #400-103) containing 40 U/mL recombinant IL2 (R and D Systems, Minneapolis, Minn., Catalog #202-IL (20 μg)) and seeded into a flask pre-coated with 1 μg/mL anti-CD3 (BD Pharmingen, San Diego, Calif., Catalog #555336) and […] (Immunotech, Beckman Coulter of Brea Calif., Catalog #IM1376). The primary T-cells were stimulated for 3-4 days, then transferred to a fresh flask and maintained in RPMI with 10% FBS and 40 U/mL IL-2.
Primary T-cells were washed twice with PBS to remove the IL-2 and resuspended in Yssel's medium at 2×10^6 cells/mL. 50 μL of cell suspension containing 80 U/mL IL-2 was added to each well of a flat bottom 96 well black plate. For the unstimulated control, IL-2 was omitted from the last column on the plate. Compounds were serially diluted in dimethyl sulfoxide (DMSO, 99.7% pure, cell culture tested, Sigma-Aldrich, St. Louis, Mo., Catalog No. D2650) from 5 mM in 3-fold dilutions, and then diluted 1:250 in Yssel's medium. 50 μL of 2× compound was added per well in duplicate and the cells were allowed to proliferate for 72 hours at 37° C.
Proliferation was measured using CellTiter-Glo® Luminescent Cell Viability Assay (Promega), which determines the number of viable cells in culture based on quantitation of the ATP present, as an indicator of metabolically active cells. The substrate was thawed and allowed to come to room temperature. After mixing the Cell Titer-Glo reagent and diluent together, 100 μL was added to each well. The plates were mixed on an orbital shaker for two minutes to induce lysis and incubated at room temperature for an additional ten minutes to allow the signal to equilibrate. Detection was performed using a Wallac Victor2 1420 multilabel counter purchased from Perkin Elmer, Shelton, Conn.

In assay [2] the test system is Ramos B-cell line stimulated with IL-4. Briefly: Assay for Ramos B-Cell Line Stimulated with IL-4 (CD23 upregulation, FACS). The format is cell-based, human. The following applies: read-out: Example 2 (IC50, Ramos B-cell line stimulated with IL-4). From the text:
One means of assaying for such inhibition is detection of the effect of the 2,4-pyrimidinediamine compounds on the upregulation of downstream gene products. In the Ramos/IL4 assay, B-cells are stimulated with the cytokine Interleukin-4 (IL-4) leading to the activation of the JAK/Stat pathway through phosphorylation of the JAK family kinases, JAK1 and JAK3, which in turn phosphorylate and activate the transcription factor Stat-6. […] To study the effect of inhibitors (e.g., the 2,4-substituted pyrimindinediamine compounds described herein) on the JAK1 and JAK3 kinases, human Ramos B cells are stimulated with human IL-4. Twenty to 24 hours post stimulation, cells are stained for upregulation of CD23 and analyzed using flow cytometry (FACS). […] An exemplary assay of this type is described in greater detail in Example 2.
B-cells stimulated with cytokine Interleukin-4 (IL-4) activate the JAK/Stat pathway through phosphorylation of the JAK family kinases, JAK-1 and JAK-3, which in turn phosphorylate and activate the transcription factor Stat-6. […] To study the effect of inhibitors on the JAK family kinases, human Ramos B cells are stimulated with human IL-4.
The Ramos B-cell line was acquired from ATCC (ATCC Catalog No. CRL-1596). The cells were cultured in RPMI 1640 (Cellgro, MediaTech, Inc., Herndon, Va., Cat No. 10-040-CM) with 10% fetal bovine serum (FBS), heat inactivated (JRH Biosciences, Inc, Lenexa, Kans., Cat No. 12106-500M) according to ATCC propagation protocol. Cells were maintained at a density of 3.5×10^5. The day before the experiment, Ramos B-cells were diluted to 3.5×10^5 cells/mL to ensure that they were in a logarithmic growth phase.
Cells were spun down and suspended in RPMI with 5% serum. 5×10^4 cells were used per point in a 96-well tissue culture plate. Cells were pre-incubated with compound or DMSO (Sigma-Aldrich, St. Louis, Mo., Cat No. D2650) vehicle control for 1 hour in a 37° C. incubator.
Cells were then stimulated with IL-4 (Peprotech Inc., Rocky Hill, N.J., Cat No. 200-04) for a final concentration of 50 units/mL for 20-24 hours. Cells were then spun down and stained with anti-CD23-PE (BD Pharmingen, San Diego, Calif., Cat No. 555711) and analyzed by FACS. Detection was performed using a BD LSR I System Flow Cytometer, purchased from Becton Dickinson Biosciences of San Jose, Calif.

Where [3] appears, read: IL-2, 72 hours, ATP quantitation (CellTiter-Glo).
Where [4] appears, read: IL-4 50 units/mL, 20-24 hours, anti-CD23-PE staining, FACS.
Setting [5] is: Homo sapiens, T-cell, 72 h, IL-2, 72 hours, ATP quantitation (CellTiter-Glo).
The mark [6] stands for this setting: Homo sapiens, Ramos, IL-4 50 units/mL, 20-24 hours, anti-CD23-PE staining, FACS.

Read-outs that look alike come from different tables or passages of the source.

Consider `CCS(=O)(=O)NCc1ccc(Nc2nc(Nc3ccc(CS(=O)(=O)NC)cc3)ncc2F)cc1` [Compound I-10, N4-(4-ethylsulfonylaminomethyl)phenyl-5-fluoro-N2-(4-methylaminosulfonylmethyl)phenyl-2,4-pyrimidinediamine], for which the IC50 in assay [1] (setting [3]) is 424 nM; in assay [2] (setting [4]) it was 285 nM.
On to `Cc1cnc(Nc2ccc(S(N)(=O)=O)cc2)nc1Nc1ccc2c(c1)C(NS(C)(=O)=O)CC2` (racemic) [VI-2, (+/−)-N2-(4-Aminosulfonylphenyl)-5-methyl-N4-[1-(methylsulfonyl)aminoindan-6-yl]-2,4-pyrimidinediamine], for which the IC50 in assay [1] (setting [5]) came to 1020 nM; in assay [2] (setting [6]), 279 nM.
On to `Cc1cnc(Nc2ccc(CCNS(=O)(=O)C3CC3)cc2)nc1Nc1ccc(CCNS(=O)(=O)C2CC2)cc1` [II-2, N2,N4-bis[4-(2-cyclopropylsulfonylamino)ethyl]phenyl-5-methyl-2,4-pyrimidine diamine], for which the results for the IC50 in assay [1] (setting [3]) and in assay [2] (setting [4]) were 317 nM and 202 nM, respectively.
For `CC1(C)Oc2cc(Nc3nc(Nc4cccc(CS(N)(=O)=O)c4)ncc3F)cnc2NC1=O` [IV-1, N2-[3-(Aminosulfonylmethylene)phenyl]-N4-[2,2-dimethyl-3-oxo-4H-pyrid[1,4]oxazin-7-yl]-5-fluoro-2,4-pyrimidinediamine], in that order: 482 nM and 133 nM.
The matching figures for `N#CCOc1ccc(Nc2nc(Nc3cccc(CS(N)(=O)=O)c3)ncc2F)cc1` [Compound I-1, N2-[3-(Aminosulfonylmethylene)phenyl]-5-fluoro-N4-(4-cyanomethyleneoxyphenyl)-2,4-pyrimidinediamine]: 93 nM and 48.9 nM.
The matching figures for `CNS(=O)(=O)Cc1ccc(Nc2ncc(F)c(Nc3ccc(CNS(=O)(=O)C4CC4)cc3)n2)cc1` [Compound I-8, N4-(4-cyclopropylsulfonylaminomethyl)phenyl-5-fluoro-N2-(4-methylaminosulfonylmethyl)phenyl-2,4-pyrimidinediamine]: 229 nM and 147 nM.
On to `COc1cc(Nc2nc(Nc3ccc4c(c3)CN(S(N)(=O)=O)CC4)ncc2F)ccc1Cl` [III-1, N2-(2-Aminosulfonyl-1,2,3,4-tetrahydroisoquinolin-7-yl)-N4-(4-chloro-3-methoxyphenyl)-5-fluoro-2,4-pyrimidinediamine], for which the IC50 is 279 nM in assay [1] (setting [5]) and 129 nM in assay [2] (setting [6]).
Consider `CCS(=O)(=O)NCc1ccc(Nc2nc(Nc3ccc(CS(=O)(=O)NC)cc3)ncc2C)cc1` [Compound I-2, N4-(4-ethylsulfonylaminomethyl)phenyl-5-methyl-N2-(4-methylaminosulfonylmethyl)phenyl-2,4-pyrimidinediamine], for which the IC50 in assay [1] (setting [3]) was 79.6 nM; in assay [2] (setting [4]) it was 70.3 nM.
With `Cc1cnc(Nc2ccc(CNS(=O)(=O)C3CC3)cc2)nc1Nc1ccc(CNS(=O)(=O)C2CC2)cc1` [II-1, N2,N4-bis(4-cyclopropylsulfonylaminomethyl)phenyl-5-methyl-2,4-pyrimidinediamine], the IC50 in assay [1] (setting [3]) was found to be 26 nM; in assay [2] (setting [4]), 45.2 nM.
The matching figures for `CN1C(=O)C(C)(C)Oc2cc(Nc3nc(Nc4cccc(CS(N)(=O)=O)c4)ncc3F)cnc21` [IV-2, N2-[3-(Aminosulfonylmethylene)phenyl]-N4-[2,2-dimethyl-3-oxo-4-methyl-pyrid[1,4]oxazin-7-yl]-5-fluoro-2,4-pyrimidinediamine]: 881 nM and 170 nM.
On to `NS(=O)(=O)N1CCc2ccc(Nc3ncc(F)c(Nc4ccc(CNS(=O)(=O)C5CC5)cc4)n3)cc2C1` [III-2, N2-(2-Aminosulfonyl-1,2,3,4-tetrahydroisoquinolin-7-yl)-N4-[4-(cyclopropylsulfonylaminomethyl)phenyl]-5-fluoro-2,4-pyrimidinediamine], for which the IC50 in assay [1] (setting [5]) worked out at 16.6 nM; in assay [2] (setting [6]) it was 27.4 nM.
Regarding `C#CCOc1ccc(Nc2nc(Nc3ccc4c(c3)CN(S(N)(=O)=O)CC4)ncc2F)cc1` [III-4, N2-(2-Aminosulfonyl-1,2,3,4-tetrahydroisoquinolin-7-yl)-N4-(4-(prop-2-ynyloxy)phenyl)-5-fluoro-2,4-pyrimidinediamine], the IC50 in assay [1] (Homo sapiens, T-cell, 72 h) was determined as 129 nM; in assay [2] (Homo sapiens, Ramos), 101 nM.
